This is an account of results in paper PMC5218480 (PLoS ONE, 2017).

The assay concerns MV-4-11 cells. The assay is described as follows: Gene expression microarray analysis (Affymetrix PrimeView) and GSEA. Type of assay: cell-based, human. The arrangement: RFU PODN (11730768_x_at) / Fold change /veh PODN (11730768_x_at) / RFU LINC00158 (11744669_a_at) / Fold change /veh LINC00158 (11744669_a_at) / RFU DUSP10 (11751237_a_at) / Fold change /veh DUSP10 (11751237_a_at) / RFU ID3 (11757404_x_at) / Fold change /veh ID3 (11757404_x_at) / RFU PLEKHG5 (11737974_s_at) / Fold change /veh PLEKHG5 (11737974_s_at) / RFU LRRC4B (11730491_at) / Fold change /veh LRRC4B (11730491_at) / RFU GIMAP4 (11747438_a_at) / Fold change /veh GIMAP4 (11747438_a_at) / RFU KRT8 (11758183_x_at) / Fold change /veh KRT8 (11758183_x_at) / RFU CNN1 (11734310_a_at) / Fold change /veh CNN1 (11734310_a_at) / RFU VPS37D (11726825_at) / Fold change /veh VPS37D (11726825_at) / RFU C10orf10 (11716522_x_at) / Fold change /veh C10orf10 (11716522_x_at) / RFU KIR2DL2 /// KIR2DL4 /// KIR2DL5A /// KIR2DL5B /// KIR2DS1 /// KIR2DS2 /// KIR2DS3 /// KIR2DS4 /// KIR3DL3 /// KIR3DL3 /// KIR3DS1 (11738374_at) / Fold change /veh KIR2DL2 /// KIR2DL4 /// KIR2DL5A /// KIR2DL5B /// KIR2DS1 /// KIR2DS2 /// KIR2DS3 /// KIR2DS4 /// KIR3DL3 /// KIR3DL3 /// KIR3DS1 (11738374_at) / RFU C1QL1 (11718748_at) / Fold change /veh C1QL1 (11718748_at) / RFU TMPRSS4 (11747572_a_at) / Fold change /veh TMPRSS4 (11747572_a_at) / RFU HAMP (11756126_x_at) / Fold change /veh HAMP (11756126_x_at) / RFU RNFT2 (11725882_a_at) / Fold change /veh RNFT2 (11725882_a_at) / RFU NR4A2 (11747474_a_at) / Fold change /veh NR4A2 (11747474_a_at) / RFU ABCC12 (11746883_a_at) / Fold change /veh ABCC12 (11746883_a_at) / RFU TMEM136 (11760407_x_at) / Fold change /veh TMEM136 (11760407_x_at) / RFU CLDN22 /// WWC2 (11732394_at) / Fold change /veh CLDN22 /// WWC2 (11732394_at) / RFU HLA-DPB1 (11760878_x_at) / Fold change /veh HLA-DPB1 (11760878_x_at) / RFU SPINT1 (11716480_a_at) / Fold change /veh SPINT1 (11716480_a_at) / RFU GAP43 (11754022_s_at) / Fold change /veh GAP43 (11754022_s_at) / RFU A4GNT (11735810_at) / Fold change /veh A4GNT (11735810_at) / RFU PRB3 (11715151_x_at) / Fold change /veh PRB3 (11715151_x_at) / RFU TUBB4B (11761932_at) / Fold change /veh TUBB4B (11761932_at) / RFU CAPN14 (11732068_a_at) / Fold change /veh CAPN14 (11732068_a_at) / RFU TMCC2 (11721928_a_at) / Fold change /veh TMCC2 (11721928_a_at) / RFU IRGQ (11745062_a_at) / Fold change /veh IRGQ (11745062_a_at) / RFU FAM174B (11720279_a_at) / Fold change /veh FAM174B (11720279_a_at) / RFU TMPRSS4 (11748680_a_at) / Fold change /veh TMPRSS4 (11748680_a_at) / RFU FAM212B (11763350_a_at) / Fold change /veh FAM212B (11763350_a_at) / RFU PLEKHG5 (11743358_a_at) / Fold change /veh PLEKHG5 (11743358_a_at) / RFU ZSCAN30 (11745921_a_at) / Fold change /veh ZSCAN30 (11745921_a_at) / RFU CMKLR1 (11741424_a_at) / Fold change /veh CMKLR1 (11741424_a_at) / RFU LOC101060620 /// MAPK8IP1 (11723275_at) / Fold change /veh LOC101060620 /// MAPK8IP1 (11723275_at) / RFU SPTSSB (11747773_x_at) / Fold change /veh SPTSSB (11747773_x_at) / RFU PRSS12 (11739890_at) / Fold change /veh PRSS12 (11739890_at) / RFU BIN1 (11741810_x_at) / Fold change /veh BIN1 (11741810_x_at) / RFU WNT11 (11732464_a_at) / Fold change /veh WNT11 (11732464_a_at) / RFU C10orf10 (11716521_a_at) / Fold change /veh C10orf10 (11716521_a_at) / RFU C5orf56 (11738089_at) / Fold change /veh C5orf56 (11738089_at) / RFU CYB561 (11721691_x_at) / Fold change /veh CYB561 (11721691_x_at) / RFU ANKRD19P (11752326_a_at) / Fold change /veh ANKRD19P (11752326_a_at) / RFU OR2T12 /// OR2T33 /// OR2T8 (11738714_s_at) / Fold change /veh OR2T12 /// OR2T33 /// OR2T8 (11738714_s_at) / RFU VCAN (11748164_a_at) / Fold change /veh VCAN (11748164_a_at) / RFU JSRP1 (11732532_at) / Fold change /veh JSRP1 (11732532_at) / RFU KRTAP10-11 (11738290_x_at) / Fold change /veh KRTAP10-11 (11738290_x_at) / RFU MYO3A (11730013_a_at) / Fold change /veh MYO3A (11730013_a_at) / RFU EBF3 (11725865_a_at) / Fold change /veh EBF3 (11725865_a_at) / RFU CAMK2N1 (11719241_x_at) / Fold change /veh CAMK2N1 (11719241_x_at) / RFU C5orf56 (11738088_a_at) / Fold change /veh C5orf56 (11738088_a_at) / RFU OLFML3 (11715873_a_at) / Fold change /veh OLFML3 (11715873_a_at) / RFU LOC100653217 /// NTM (11731650_a_at) / Fold change /veh LOC100653217 /// NTM (11731650_a_at) / RFU MAPK11 (11762145_a_at) / Fold change /veh MAPK11 (11762145_a_at) / RFU FIZ1 (11724087_x_at) / Fold change /veh FIZ1 (11724087_x_at) / RFU OASL (11726364_x_at) / Fold change /veh OASL (11726364_x_at) / RFU SOX15 (11748057_x_at) / Fold change /veh SOX15 (11748057_x_at) / RFU CD79A (11719716_a_at) / Fold change /veh CD79A (11719716_a_at) / RFU HIST1H1D (11736915_at) / Fold change /veh HIST1H1D (11736915_at) / RFU CASKIN2 (11723855_a_at) / Fold change /veh CASKIN2 (11723855_a_at) / RFU LOC730098 (11760151_x_at) / Fold change /veh LOC730098 (11760151_x_at) / RFU OR4N2 (11742367_at) / Fold change /veh OR4N2 (11742367_at) / RFU PRRT2 (11749266_a_at) / Fold change /veh PRRT2 (11749266_a_at) / RFU SNX32 (11753110_a_at) / Fold change /veh SNX32 (11753110_a_at) / RFU CDHR5 (11726645_a_at) / Fold change /veh CDHR5 (11726645_a_at) / RFU RCAN1 (11760418_a_at) / Fold change /veh RCAN1 (11760418_a_at) / RFU FAM167A (11723789_a_at) / Fold change /veh FAM167A (11723789_a_at) / RFU FAM26E (11764081_at) / Fold change /veh FAM26E (11764081_at) / RFU ISYNA1 (11749810_s_at) / Fold change /veh ISYNA1 (11749810_s_at) / RFU ACY1 (11761880_at) / Fold change /veh ACY1 (11761880_at) / RFU 11764098_at / Fold change /veh 11764098_at / RFU SAMD14 (11745864_x_at) / Fold change /veh SAMD14 (11745864_x_at) / RFU NPB (11741838_a_at) / Fold change /veh NPB (11741838_a_at) / RFU TMPRSS6 (11731388_a_at) / Fold change /veh TMPRSS6 (11731388_a_at) / RFU KRTAP10-2 (11738614_at) / Fold change /veh KRTAP10-2 (11738614_at) / RFU ARHGAP8 /// PRR5-ARHGAP8 (11727945_x_at) / Fold change /veh ARHGAP8 /// PRR5-ARHGAP8 (11727945_x_at) / RFU KRTAP5-7 /// NADSYN1 (11734609_at) / Fold change /veh KRTAP5-7 /// NADSYN1 (11734609_at) / RFU RASL12 (11751679_a_at) / Fold change /veh RASL12 (11751679_a_at) / RFU CDKN2B (11736163_a_at) / Fold change /veh CDKN2B (11736163_a_at) / RFU PRF1 (11729649_at) / Fold change /veh PRF1 (11729649_at) / RFU, ZNF638 /// ZNF638-IT1 / Fold change vs veh, ZNF638 /// ZNF638-IT1 / RFU, PANK3 / Fold change vs veh, PANK3 / RFU, SH3YL1 / Fold change vs veh, SH3YL1 / RFU, ZEB2 / Fold change vs veh, ZEB2 / RFU, NRIP1 / Fold change vs veh, NRIP1 / RFU, PTTG1IP / Fold change vs veh, PTTG1IP / RFU, CAPN2 / Fold change vs veh, CAPN2 / RFU, MED14 / Fold change vs veh, MED14 / RFU, SNORA58 / Fold change vs veh, SNORA58 / RFU, C1orf63 / Fold change vs veh, C1orf63 / RFU, LRRFIP1 / Fold change vs veh, LRRFIP1 / RFU, NDUFAF7 / Fold change vs veh, NDUFAF7 / RFU, SLC12A2 / Fold change vs veh, SLC12A2 / RFU, IBTK / Fold change vs veh, IBTK / RFU, ESF1 / Fold change vs veh, ESF1 / Fold change vs veh, TMEM50B / RFU, TAOK1 / Fold change vs veh, TAOK1 / RFU, ACBD3 / Fold change vs veh, ACBD3 / RFU, TMA16 / Fold change vs veh, TMA16 / RFU, RWDD3 / Fold change vs veh, RWDD3 / RFU, BCAT1 / Fold change vs veh, BCAT1 / RFU, EDEM3 / Fold change vs veh, EDEM3 / RFU, TMEM33 / Fold change vs veh, TMEM33 / RFU, WDR75 / Fold change vs veh, WDR75 / RFU, AHCTF1 / Fold change vs veh, AHCTF1 / RFU, TFRC / Fold change vs veh, TFRC / RFU, ZDHHC17 / Fold change vs veh, ZDHHC17 / RFU, NOM1 / Fold change vs veh, NOM1 / RFU, ARL8B / Fold change vs veh, ARL8B / RFU, ZBTB11 / Fold change vs veh, ZBTB11 / RFU, TAMM41 / Fold change vs veh, TAMM41 / RFU, KIAA1704 /// LOC100996395 / Fold change vs veh, KIAA1704 /// LOC100996395 / RFU, ING1 / Fold change vs veh, ING1 / RFU, TRMT61B / Fold change vs veh, TRMT61B / RFU, FUBP3 / Fold change vs veh, FUBP3 / RFU, TP53 / Fold change vs veh, TP53 / RFU, TNKS2 / Fold change vs veh, TNKS2 / RFU, ZFP14 / Fold change vs veh, ZFP14 / RFU, ACTR2 / Fold change vs veh, ACTR2 / RFU, PPP3R1 / Fold change vs veh, PPP3R1 / RFU, PIK3R1 / Fold change vs veh, PIK3R1 / RFU, HNRNPA1 / Fold change vs veh, HNRNPA1 / RFU, RNF170 / Fold change vs veh, RNF170 / RFU, ZNF28 / Fold change vs veh, ZNF28 / RFU, RNGTT / Fold change vs veh, RNGTT / RFU, OGT / Fold change vs veh, OGT / RFU, BRD1 / Fold change vs veh, BRD1 / RFU, MARS / Fold change vs veh, MARS / RFU, ZNF655 / Fold change vs veh, ZNF655 / RFU, FAHD1 / Fold change vs veh, FAHD1 / RFU, BDP1 / Fold change vs veh, BDP1 / RFU, LRRCC1 / Fold change vs veh, LRRCC1 / RFU, ARID1A / Fold change vs veh, ARID1A / RFU, ZNF146 / Fold change vs veh, ZNF146 / RFU, ZNF330 / Fold change vs veh, ZNF330 / RFU, GPN3 / Fold change vs veh, GPN3 / RFU, C9orf123 / Fold change vs veh, C9orf123 / RFU, N4BP2L2 / Fold change vs veh, N4BP2L2 / RFU, ARFIP1 / Fold change vs veh, ARFIP1 / RFU, FAM179B / Fold change vs veh, FAM179B / RFU, BCL10 / Fold change vs veh, BCL10 / RFU, UHRF1BP1L / Fold change vs veh, UHRF1BP1L / RFU, BET1 / Fold change vs veh, BET1 / RFU, CNOT2 / Fold change vs veh, CNOT2 / RFU, ZNF268 / Fold change vs veh, ZNF268 / Fold change vs veh, ZNF507 / RFU, DGCR2 / Fold change vs veh, DGCR2 / RFU, WDSUB1 / Fold change vs veh, WDSUB1 / Fold change vs veh, HSP90B1 /// MIR3652 / RFU, ADSS / Fold change vs veh, ADSS / RFU, GK / Fold change vs veh, GK / RFU, ZNF148 / Fold change vs veh, ZNF148 / RFU, TAF9 / Fold change vs veh, TAF9 / RFU, SLC1A5 / Fold change vs veh, SLC1A5 / RFU, SLMO2 / Fold change vs veh, SLMO2 / RFU, ABCC4 / Fold change vs veh, ABCC4 / RFU, LOC101060439 /// RAP1B / Fold change vs veh, LOC101060439 /// RAP1B / RFU, RFX7 / Fold change vs veh, RFX7 / RFU, GTPBP10 / Fold change vs veh, GTPBP10 / RFU, CNEP1R1 / Fold change vs veh, CNEP1R1 / RFU, BIVM-ERCC5 /// ERCC5 / Fold change vs veh, BIVM-ERCC5 /// ERCC5 / RFU, ILF3 / Fold change vs veh, ILF3 / RFU 11762660_at / Fold change /veh 11762660_at / RFU VCAN (11757783_s_at) / Fold change /veh VCAN (11757783_s_at) / RFU DDX43 (11728927_at) / Fold change /veh DDX43 (11728927_at) / RFU KRT8 (11758188_x_at) / Fold change /veh KRT8 (11758188_x_at) / RFU NKD1 (11759106_at) / Fold change /veh NKD1 (11759106_at) / RFU SRD5A1 (11742802_a_at) / Fold change /veh SRD5A1 (11742802_a_at) / RFU TPSAB1 /// TPSB2 (11721975_s_at) / Fold change /veh TPSAB1 /// TPSB2 (11721975_s_at) / RFU GSTM3 (11746129_a_at) / Fold change /veh GSTM3 (11746129_a_at) / RFU IL23R (11737362_x_at) / Fold change /veh IL23R (11737362_x_at) / RFU TMEM51 (11727254_a_at) / Fold change /veh TMEM51 (11727254_a_at) / RFU PIWIL2 (11732686_x_at) / Fold change /veh PIWIL2 (11732686_x_at) / RFU ORM1 (11744905_x_at) / Fold change /veh ORM1 (11744905_x_at) / RFU CCDC152 (11743942_at) / Fold change /veh CCDC152 (11743942_at) / RFU ECM1 (11717891_a_at) / Fold change /veh ECM1 (11717891_a_at) / RFU IL23R (11748794_a_at) / Fold change /veh IL23R (11748794_a_at) / RFU TNFAIP8L3 (11732012_x_at) / Fold change /veh TNFAIP8L3 (11732012_x_at) / RFU MBOAT4 (11741988_at) / Fold change /veh MBOAT4 (11741988_at) / RFU 11764193_at / Fold change /veh 11764193_at / RFU TMEM53 (11763286_at) / Fold change /veh TMEM53 (11763286_at) / RFU MAGEB2 (11727129_at) / Fold change /veh MAGEB2 (11727129_at) / RFU TMEM200A (11744735_a_at) / Fold change /veh TMEM200A (11744735_a_at) / RFU CCDC152 (11751479_a_at) / Fold change /veh CCDC152 (11751479_a_at) / RFU FAM211A (11726209_a_at) / Fold change /veh FAM211A (11726209_a_at) / RFU RGS16 (11746705_a_at) / Fold change /veh RGS16 (11746705_a_at) / RFU VCAN (11755009_s_at) / Fold change /veh VCAN (11755009_s_at) / RFU RHOB (11743442_s_at) / Fold change /veh RHOB (11743442_s_at) / RFU RGS16 (11720943_a_at) / Fold change /veh RGS16 (11720943_a_at) / RFU RGS16 (11720944_at) / Fold change /veh RGS16 (11720944_at) / RFU, VPS4B / Fold change vs veh, VPS4B / RFU, CREB1 / Fold change vs veh, CREB1 / RFU, DNAJC13 / Fold change vs veh, DNAJC13 / RFU, GNAQ / Fold change vs veh, GNAQ / RFU, CDK5R1 / Fold change vs veh, CDK5R1 / RFU, ZRANB3 / Fold change vs veh, ZRANB3 / RFU, CUL4A / Fold change vs veh, CUL4A / RFU, CCNY / Fold change vs veh, CCNY / RFU, UFL1 / Fold change vs veh, UFL1 / RFU, COG3 / Fold change vs veh, COG3 / RFU, DIAPH2 / Fold change vs veh, DIAPH2 / RFU, SKA2 / Fold change vs veh, SKA2 / RFU, AFF3 / Fold change vs veh, AFF3 / RFU, LMF1 / Fold change vs veh, LMF1 / RFU, IPO11 / Fold change vs veh, IPO11 / RFU, DFFB / Fold change vs veh, DFFB / RFU, FOXP1 / Fold change vs veh, FOXP1 / RFU, CARD8 / Fold change vs veh, CARD8 / RFU, STRN3 / Fold change vs veh, STRN3 / RFU, ADK / Fold change vs veh, ADK / RFU, RASSF2 / Fold change vs veh, RASSF2 / RFU, WIPF1 / Fold change vs veh, WIPF1 / RFU, LARP1B / Fold change vs veh, LARP1B / RFU, RASA1 / Fold change vs veh, RASA1 / RFU, RB1 / Fold change vs veh, RB1 / RFU, PPFIA1 / Fold change vs veh, PPFIA1 / RFU, MAT2A / Fold change vs veh, MAT2A / RFU, CCT5 / Fold change vs veh, CCT5 / RFU, WDR92 / Fold change vs veh, WDR92 / RFU, CUX1 / Fold change vs veh, CUX1 / RFU, TTC7A / Fold change vs veh, TTC7A / RFU, TMEM135 / Fold change vs veh, TMEM135 / RFU, DEPTOR / Fold change vs veh, DEPTOR / RFU, CPM / Fold change vs veh, CPM / RFU, DNAJB6 / Fold change vs veh, DNAJB6 / RFU, CACNA2D3 / Fold change vs veh, CACNA2D3 / RFU, DTX4 / Fold change vs veh, DTX4 / RFU, TFCP2 / Fold change vs veh, TFCP2 / RFU, GMCL1 /// GMCL1P1 / Fold change vs veh, GMCL1 /// GMCL1P1 / RFU, AEBP2 / Fold change vs veh, AEBP2 / RFU, SNHG1 /// SNORD22 /// SNORD25 /// SNORD26 /// SNORD27 /// SNORD28 /// SNORD29 /// SNORD31 / Fold change vs veh, SNHG1 /// SNORD22 /// SNORD25 /// SNORD26 /// SNORD27 /// SNORD28 /// SNORD29 /// SNORD31 / Fold change (Aza/veh), C12orf56 (ProbeSet 11735607_a_at) / Fold change (ACY-1035/veh), C12orf56 (ProbeSet 11735607_a_at) / Fold change (Aza/veh), FGFR1OP (ProbeSet 11751329_s_at) / Fold change (ACY-1035/veh), FGFR1OP (ProbeSet 11751329_s_at) / Fold change (Aza/veh), VPS36 (ProbeSet 11739960_a_at) / Fold change (ACY-1035/veh), VPS36 (ProbeSet 11739960_a_at) / RFU SYPL1 (11715823_x_at) / Fold change /veh SYPL1 (11715823_x_at) / RFU IGFBP7 (11715501_s_at) / Fold change /veh IGFBP7 (11715501_s_at) / RFU REEP3 (11722064_at) / Fold change /veh REEP3 (11722064_at) / RFU IGLL1 (11728026_x_at) / Fold change /veh IGLL1 (11728026_x_at): dose or concentration left out as unconfirmed. To be noted: ProbeSet 11729384_s_at; LIST D.

Consider `Nc1ncn([C@@H]2O[C@H](CO)[C@@H](O)[C@H]2O)c(=O)n1` [azacitidine], for which the “Fold change vs veh, CCNY” value was 0.82.
